Read-outs that look alike come from different tables or passages of the source.
Legend:
HBV = HBV infected transgenic mouse or humanized mouse models; cited from earlier work
HBV (AAV-HBV) = type: in vivo, C57BL/6 mice; settings: for effect on HBV DNA: Example 7, FIG. 4-6; for effect on HBV DNA / effect on HBsAg: single treatment, 6 weeks PO, Compound 5 12 mg/kg QD; for reduction in HBV DNA: Compound 2 12 mg/kg QD; for effect on HBsAg: Example 7, FIG. 5-6
Text: 4-week old male C57BL/6 mice, specific pathogen free, were purchased from Shanghai Laboratory Animal Center of Chinese Academy of Sciences (SLAC) and housed in an animal care facility in individually ventilated cages under controlled temperature and light conditions following the Institutional Animal Care guidelines. AAV/HBV virus was purchased from Beijing FivePlus Molecular Medicine Institute (Beijing, China). This recombinant virus carries 1.3 copies of the HBV genome, which was packaged in AAV serotype 8 (AAV8) capsids. C57BL/6 mice were injected with […], of recombinant virus, diluted in saline buffer, through tail vein injection. The mice were bled at days 7 and 14 post injection to monitor HBV surface antigen (HBsAg), HBV e antigen (HBeAg), HBs antibody (HBsAb) and HBV genomic DNA in serum, and then were randomly grouped according to these HBV biomarkers.
Measurement of HBV Biomarkers
Serum HBsAg and HBeAg was measured using CLIA kits (Autobio Diagnostics Co., Ltd, Zhengzhou, China) according to the manufacturer's instructions. The lower limit of detection for HBsAg and HBeAg was 0.1 ng/mL and 0.25 NCU/mL (national clinical unit/mL) respectively. Serum dilution of 100-fold (for HBsAg) or 500-fold (for HBeAg) was used to obtain values within the linear range of the standard curve. Serum HBV DNA was extracted using a MagNA Pure 96 DNA and Viral NA Small Volume Kit (Roche) following the manufacturer's instructions. The DNA samples were analyzed by real-time quantitative PCR (qPCR) using a HBV-specific primer and probe set for specific amplification and detection of a 128 bp HBV genome region from the nucleotide 2969 to 3096. The sequences of the primers and probe are shown as follows: […]
Anti-HBs in the serum was measured on day 24 after the treatment ended using Anti-HBs CLIA kits (Autobio Diagnostics Co., Ltd, Zhengzhou, China) following the manufacturer's instructions. The serum samples were 3-fold diluted and 50 μL of the diluted samples were used for the assay.
10 mg/mL of Compound 1 and 1.2 mg/mL of Compound 2 was formulated as an inclusion complex with 2% Klucel LF, 0.1% Polysorbate 80, and 0.1% Parabens in water. All the mice were orally dosed for a total of 6 weeks followed by a 2-week off-treatment period. In one single-treatment control study, the five mice of the group Compound 1 were treated with Compound 1 at 100 mg/kg every other day (QOD). The vehicle group was treated with an equivalent volume of oral-QD vehicle placebo (2% Klucel LF, 0.1% Polysorbate 80, and 0.1% Parabens in water). In the combination therapy study, the five mice of the group Compound 2 were administered at 12 mg/kg orally once daily (QD). The group Combo received 100 mg/kg of Compound 1 QOD plus 12 mg/kg Compound 2 QD. The vehicle group was treated with an equivalent volume of oral-QD vehicle placebo (2% Klucel LF, 0.1% Polysorbate 80, and 0.1% Parabens in water).
In another independent study, more combinations of a TLR7 agonist plus a Capsid inhibitor and corresponding single compound treatments were tested (summarized in Table 2) using the same AAV-HBV mouse model and method of measurement of HBV biomarkers described in Example 5.
In this study, eight mice were recruited in each group, and animals received the first dose on day 28 post AAV-HBV infection. The tested combinations included Compound 1 plus Compound 4, Compound 3 plus Compound 4, and Compound 1 plus Compound 5.

human TLR7 = target: T1, human TLR7 (Homo sapiens, UniProt Q9NYK1); experiment: HEK293-Blue-hTLR-7 cells assay (NF-κB/AP-1 SEAP reporter); type: cell-based; settings: 20 hours incubation, read-out: TLR7 agonism activity in HEK293-hTLR-7 assay
T1 sequence (Q9NYK1 27-1049): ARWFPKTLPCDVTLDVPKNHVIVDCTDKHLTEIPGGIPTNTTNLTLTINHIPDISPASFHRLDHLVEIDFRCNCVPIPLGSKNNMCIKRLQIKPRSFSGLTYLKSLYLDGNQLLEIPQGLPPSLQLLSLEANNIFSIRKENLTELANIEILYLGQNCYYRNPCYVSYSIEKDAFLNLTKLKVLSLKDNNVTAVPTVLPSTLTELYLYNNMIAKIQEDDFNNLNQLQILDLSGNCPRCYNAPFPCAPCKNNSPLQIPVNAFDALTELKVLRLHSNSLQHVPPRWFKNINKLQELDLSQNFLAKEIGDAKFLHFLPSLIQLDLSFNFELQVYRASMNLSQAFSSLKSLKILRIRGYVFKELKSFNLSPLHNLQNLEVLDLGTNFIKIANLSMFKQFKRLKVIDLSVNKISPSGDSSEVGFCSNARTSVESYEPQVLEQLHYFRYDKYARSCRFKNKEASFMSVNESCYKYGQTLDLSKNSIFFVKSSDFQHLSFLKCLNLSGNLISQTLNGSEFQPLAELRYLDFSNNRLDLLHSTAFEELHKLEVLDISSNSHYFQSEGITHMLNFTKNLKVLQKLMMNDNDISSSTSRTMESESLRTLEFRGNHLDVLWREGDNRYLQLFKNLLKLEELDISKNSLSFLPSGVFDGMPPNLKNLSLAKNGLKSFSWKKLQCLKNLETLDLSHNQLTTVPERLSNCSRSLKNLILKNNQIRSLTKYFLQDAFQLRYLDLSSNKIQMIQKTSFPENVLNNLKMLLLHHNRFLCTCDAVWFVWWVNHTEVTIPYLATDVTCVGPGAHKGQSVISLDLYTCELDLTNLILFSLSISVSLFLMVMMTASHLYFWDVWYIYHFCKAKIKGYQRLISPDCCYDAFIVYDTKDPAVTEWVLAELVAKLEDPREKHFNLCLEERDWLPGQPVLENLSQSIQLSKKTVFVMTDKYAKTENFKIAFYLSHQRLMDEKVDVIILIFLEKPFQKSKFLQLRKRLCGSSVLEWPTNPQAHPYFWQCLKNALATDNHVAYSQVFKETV
Text: HEK293-Blue-hTLR-7 Cells Assay:
A stable HEK293-Blue-hTLR-7 cell line was purchased from InvivoGen (Cat.#: hkb-htlr7, San Diego, Calif., USA). These cells were designed for studying the stimulation of human TLR7 by monitoring the activation of NF-κB. A SEAP (secreted embryonic alkaline phosphatase) reporter gene was placed under the control of the IFN-β[…] minimal promoter fused to five NF-κB and AP-1-binding sites. The SEAP was induced by activating NF-κB and AP-1 via stimulating HEK-Blue hTLR7 cells with TLR7 ligands. Therefore the reporter expression was regulated by the NF-κB promoter upon stimulation of human TLR7 for 20 hours. The cell culture supernatant SEAP reporter activity was determined using QUANTI-Blue™ kit (Cat.#: rep-qb1, Invivogen, San Diego, Ca, USA) at a wavelength of 640 nm, a detection medium that turns purple or blue in the presence of alkaline phosphatase.
HEK293-Blue-hTLR7 cells were incubated at a density of 250,000˜450,000 cells/mL in a volume of 180 μL in a 96-well plate in Dulbecco's Modified Eagle's medium (DMEM) containing 4.5 g/L glucose, 50 U/mL penicillin, […], […], 2 mM L-glutamine, 10% (v/v) heat-inactivated fetal bovine serum for 24 h. […]

[1] = Example 8, FIG. 8, serum, end of the 6-week treatment, Compound 8 300 mg/kg QOD PO
[2] = Compound 4 20 mg/kg QD, Compound 3 30 mg/kg QOD
[3] = Example 6, FIG. 1, serum, after a 6-week treatment, oral, Compound 1 100 mg/kg QOD
[4] = Example 6, FIG. 1, serum, after a 6-week treatment, Compound 2 12 mg/kg QD oral

COC(=O)C1=C(C)NC(c2ncc(F)cc2F)=N[C@H]1c1ccc(F)cc1Cl [Bay 41-4109]
in vivo efficacy (HBV DNA) (HBV): in vivo efficacy with HBV DNA reduction

CC(=O)O[C@@H]1C[C@@H](CO)O[C@H]1n1c(=O)sc2cnc(N)nc21 [Compound 8, 5-amino-3-(2′-O-acetyl-3′-deoxy-β-D-ribofuranosyl)-3H-thiazolo[4,5-d]pyrimidin-2-one]
HBV DNA reduction (HBV (AAV-HBV); [1]): about 2 log
HBsAg reduction (HBV (AAV-HBV); [1]): ~1.5 log

CCOC(=O)C1=C(CN2CCN3C(=O)N(CC(C)(C)C(=O)O)C[C@@H]3C2)NC(c2nccs2)=N[C@H]1c1cccc(F)c1C [Compound 4, 3-[(8aS)-7-[[(4S)-5-ethoxycarbonyl-4-(3-fluoro-2-methyl-phenyl)-2-thiazol-2-yl-1,4-dihydropyrimidin-6-yl]methyl]-3-oxo-5,6,8,8a-tetrahydro-1H-imidazo[1,5-a]pyrazin-2-yl]-2,2-dimethyl-propanoic acid]
effect on HBV DNA (HBV (AAV-HBV); [2]): inhibited
HBsAg reduction (HBV (AAV-HBV); Example 7, FIG. 4 and 5, serum, end of 6-week treatment, PO, Compound 1 100 mg/kg QOD, Compound 3 30 mg/kg QOD, Compound 4 20 mg/kg QD): 2 log

CCOC(=O)C1=C(CN2CCN3C(=O)N(CC(C)(C)C(=O)O)C[C@@H]3C2)NC(c2nccs2)=N[C@H]1c1cccc(F)c1Cl [Compound 2, 3-[(8aS)-7-[[(4R)-4-(2-chloro-3-fluoro-phenyl)-5-ethoxycarbonyl-2-thiazol-2-yl-1,4-dihydropyrimidin-6-yl]methyl]-3-oxo-5,6,8,8a-tetrahydro-1H-imidazo[1,5-a]pyrazin-2-yl]-2,2-dimethyl-propanoic acid]
reduction in HBV DNA (HBV (AAV-HBV); [3]): more than 3 log
HBV DNA level (HBV (AAV-HBV); [4]): below the LLQ
HBsAg level (effect in words) (HBV (AAV-HBV); [4]): moderately reduced

CC[C@H](OC(C)=O)[C@@H]1C[C@@H](O)[C@H](n2c(=O)sc3cnc(N)nc32)O1 [Compound 1, [(1S)-1-[(2S,4R,5R)-5-(5-amino-2-oxo-thiazolo[4,5-d]pyrimidin-3-yl)-4-hydroxy-tetrahydrofuran-2-yl]propyl] acetate]
reduction in HBsAg (HBV (AAV-HBV); [3]): more than 1 log
reduction in HBV DNA (HBV (AAV-HBV); [3]): more than 2 log

CC[C@H](O)[C@@H]1C[C@@H](O)[C@H](n2c(=O)sc3c(=O)[nH]c(N)nc32)O1 [compound 11]
EC50 (human TLR7): 72 µM

COC(=O)C1=C(CN2[C@@H]3C[C@H](CC(=O)O)C[C@H]2C(F)(F)C3)NC(c2nccs2)=N[C@H]1c1cccc(F)c1Cl [Compound 5, 2-[(1R,3S,5S)-8-[[(4R)-4-(2-chloro-3-fluoro-phenyl)-5-methoxycarbonyl-2-thiazol-2-yl-1,4-dihydropyrimidin-6-yl]methyl]-6,6-difluoro-8-azabicyclo[3.2.1]octan-3-yl]acetic acid]
effect on HBV DNA (HBV (AAV-HBV); [2]): reduced
effect on HBsAg (HBV (AAV-HBV); Compound 3 30 mg/kg QOD): reduced

CC(=O)O[C@@H](C1CC1)[C@H]1O[C@@H](n2c(=O)sc3cnc(N)nc32)CS1 [Compound 3, [(S)-[(2S,5R)-5-(5-amino-2-oxo-thiazolo[4,5-d]pyrimidin-3-yl)-1,3-oxathiolan-2-yl]-cyclopropyl-methyl] acetate]
effect on HBV DNA (HBV (AAV-HBV); [2]): reduced
effect on HBsAg (HBV (AAV-HBV); Compound 3 30 mg/kg QOD): reduced

— patent US11771699B2, “Combined treatment with a TLR7 agonist and an HBV capsid assembly inhibitor” (Hoffmann-La Roche Inc., priority 2015, dated 2023)
